According to patent publication US20230331679A1, “NAPHTHALENE MONOIMIDE COMPOUNDS AND METHODS THEREOF” (JAWAHARLAL NEHRU CENTRE FOR ADVANCED SCIENTIFIC RESEARCH, priority 2020, published 2023):

Test system: APP/PS1 and WT mice
Assay: Novel object identification (NOI) test
Format: in vivo
Protocol: In OF test, all the experimental mice were individually allowed to explore a novel platform (45 X 45 cm) and their locomotion activity was monitored for 5 min (Sony HDRCX405 camera) and analyzed using the smart 3 software (Panlab; FIG. 16A). […] The anxiety behaviors of TGR63 treated mice were assessed by the time spent and the entries in the center zone (20 X 20 cm) of OF arena. […] Next, the effect of TGR63 on memory processing, viz., acquisition, consolidation and retrieval were evaluated through NOI test, which has been widely used as a tool to study the neurobiology of memory using the natural tendency of rodents to explore novel objects more than the familiar objects. All the experimental mice were familiarized with two identical objects (familiar objects) in a known habituated arena and allowed to explore a novel and familiar object after 24 and 48 h of familiarization (FIG. 16E). The exploration time with each object was measured using a stopwatch, and the discrimination index (DI) was determined using the formula, (time exploring the novel object - time exploring the familiar) / (time exploring novel + familiar) * 100. […] Similarly, the calculated DI after 48 h was lowest (-7) for AD vehicle cohort compared to both vehicle and TGR63 treated WT cohorts (+43 and +45, respectively) (FIG. 16G). […] The blocking of essential synaptic receptors (NMDA and AMPA) by Aβ aggregation species leading to synaptic dysfunction followed by impairment in hippocampal LTP formation. […] TGR63 treatment ameliorates the memory impairment in APP/PS 1 mice by reducing the toxic amyloid burden from the brain under progressive AD conditions.

SMILES: CN(C)c1ccc(C#Cc2ccc3c4c(cccc24)C(=O)N(CC[N+](C)(C)C)C3=O)cc1 [TGR63, 2-(6-((4-(dimethylamino)phenyl)ethynyl)-1,3-dioxo-1H-benzo[de]isoquinolin-2(3H)-yl)-N,N,N-trimethylethan-1-aminium]
- discrimination index (DI) (AD TGR63 cohort, after 24 h, AD vehicle -3): +43
- discrimination index (DI) (AD TGR63 cohort, after 48 h, AD vehicle -7): +38
- reduction of DI at 48 h compared to 24 h (TGR63 treated WT and AD cohorts): ~ 5 units of DI
- discrimination index (DI) (WT TGR63 cohort, after 24 h, WT vehicle +49): +50
- discrimination index (DI) (WT TGR63 cohort, after 48 h, WT vehicle +43): +45
